These results are taken from US4937237A, “Phosphinic acid substituted aromatic steroids as inhibitors of steroid 5-60 -reductase” (SmithKline Beckman Corporation, priority 1988, dated 1990).

In assay [1] the test system is human steroid 5-α-reductase. The conditions noted are these: substrate (testosterone), separate experiment.
Assay [2] has as its target T1, human steroid 5-α-reductase (Homo sapiens, UniProt P31213).
T1 construct: Frozen human prostates were thawed and minced into small pieces; from tissue; host or cells: hyperplastic human prostate, 140,000×g particulate fraction
T1 sequence (P31213 1-254): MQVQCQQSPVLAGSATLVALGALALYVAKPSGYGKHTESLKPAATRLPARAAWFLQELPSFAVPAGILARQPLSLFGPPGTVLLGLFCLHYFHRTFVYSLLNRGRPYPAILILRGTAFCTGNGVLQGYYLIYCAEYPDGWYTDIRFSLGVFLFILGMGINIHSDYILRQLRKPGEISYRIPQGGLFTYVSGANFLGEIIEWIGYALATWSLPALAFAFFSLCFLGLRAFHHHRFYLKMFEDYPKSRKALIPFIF
Put plainly: Potency in inhibiting human steroid 5-α-reductase from hyperplastic human prostates ([14C]-testosterone conversion, Dixon plot). The assay is classed as biochemical. How it is done: A compound of the invention, 17β-(N,N-diisopropylcarboxamide)-estr-1,3,5(10)-triene-3-phosphinic acid, was tested for potency in inhibiting human steroid 5-α-reductase using tissue from hyperplastic human prostates. In determining potency in inhibiting the human enzyme, the following procedure was employed:
Frozen human prostates were thawed and minced into small pieces (5 mm^3). The tissue was homogenized in 3 to 5 volumes of 20 mM potassium phosphate buffer, pH 6.5, containing 0.33M sucrose, 1 mM dithiothreitol, and 50 μM NADPH with a Brinkmann Polytron (Sybron Corporation, Westbury, N.Y.). The solution was subjected to sonication for 3 to 5 minutes with a Sonifier (Branson Sonic Power Co.) followed by hand homogenization in a glass-to-glass Dounce homogenizer (Kontes Glass Company, Vineland, N.J.). […]
A constant amount of [^14 C]-testosterone (52 to 55 mCi/mmol, New England Nuclear, Boston, MA) in ethanol and varying amounts of the potential inhibitor in ethanol were deposited in test tubes and concentrated to dryness in a SAVANT Speed Vac. […] The radiochemical content in the bands of the substrate and the products was determined with a BIOSCAN Imaging Scanner (Bioscan, Inc., Washington, D.C.). The percent of recovered radiolabel converted to product was calculated, from which enzyme activity was determined. […]

Assay [3] concerns the target 5-α-Reductase. The following applies: cited from earlier work; for Ki / Reversibility of inhibition (with Ki): Table I; for Type of inhibition of steroid 5-α-reductase, in words: literature.

Where two headings read alike, the source gives them in different places.

Usually Km stands for the substrate concentration at which the rate is half of its maximum. In the case of `C[C@]12CC[C@H]3[C@@H](CCC4=CC(=O)CC[C@@]43C)[C@@H]1CC[C@@H]2O` [testosterone], the Michaelis-Menten constant (Km) in assay [1] worked out at 4.5 µM.

A word on the Ki: it is the dissociation constant of the complex between target and ligand, obtained from inhibition or displacement. `CC(C)N(C(=O)[C@H]1CC[C@H]2[C@@H]3CCc4cc([PH](=O)O)ccc4[C@H]3CC[C@]12C)C(C)C` [17β-(N,N-Diisopropylcarboxamide)-estr-1,3,5(10)-triene-3-phosphinic Acid]: the affinity in assay [2] corresponds to a Ki of 13 nM. Further, the “Potency as inhibitor of human steroid 5-α-reductase, in words” value in assay [2] (concluded from low Ki) was “potent inhibitor”.

With `CCN(CC)C(=O)[C@H]1CC[C@H]2[C@@H]3CC[C@H]4N(C)C(=O)CC[C@]4(C)[C@H]3CC[C@]12C` [(4)], in assay [3] (literature references), the Ki was 5 nM and the “Reversibility of inhibition (with Ki)” value is “Reversible”.

Turning to `C=C1C[C@@H]2[C@H](CC[C@@]3(C)[C@H]2CC[C@]3(OC(C)=O)C(C)=O)[C@@]2(C)CCC(=O)C=C12` [(5)], in assay [3] (literature references), the Ki was 1250 nM and the “Reversibility of inhibition (with Ki)” value is recorded as “Irreversible”. The “Type of inhibition of steroid 5-α-reductase, in words” value in assay [3] was “time-dependent inactivator”.

`CC(CO)[C@H]1CC[C@H]2[C@@H]3CC[C@H]4C(=[N+]=[N-])C(=O)CC[C@]4(C)[C@H]3CC[C@]12C` (stereo partly drawn) [(3)]: the Ki in assay [3] (literature reference, unit inferred) was 35 nM. For the same molecule, in assay [3] (literature references), the “Reversibility of inhibition (with Ki)” value is given as “Irreversible”. The “Type of inhibition of steroid 5-α-reductase, in words” value in assay [3] is “potent, time-dependent inhibitor”.

For `CC(=O)C1CCC2C3CC=C=CC(=O)CCC(=O)C3CCC12C` (stereo not drawn) [(2)], in assay [3] (literature references), the Ki was 1000 nM and the “Reversibility of inhibition (with Ki)” value is “Irreversible”.

`C[C@]12CC[C@H]3[C@@H](CCC4=CC(=O)CC[C@@]43C)[C@@H]1CC[C@@H]2C(=O)O` [(1)]: in assay [3] (literature references), the Ki was 1100 nM and the “Reversibility of inhibition (with Ki)” value is reported as “Reversible”.
